Results published in the CheMixHub viscosity set.
Where “and” joins values, the source holds several entries; their conditions need not be identical. Identical values can stand only once. ± gives the uncertainty stated by the source.

Assays:
[1] = xn = mol fraction of the nth substance listed; details: 298.15 K, 101 kPa

CCOC=O
viscosity
Details	293.15 K	298.15 K	303.15 K	308.15 K	313.15 K	318.15 K	323.15 K
100 kPa	–	0.38 ± 0.009 mPa·s and 0.38 ± 0.01 mPa·s	0.36 ± 0.009 mPa·s and 0.36 ± 0.01 mPa·s	–	0.328 ± 0.008 mPa·s	0.31 ± 0.008 mPa·s and 0.31 ± 0.01 mPa·s	0.29 ± 0.007 mPa·s and 0.29 ± 0.01 mPa·s
101 kPa	0.418 ± 0.011 mPa·s	0.3972 mPa·s	0.378 ± 0.01 mPa·s	0.361 ± 0.01 mPa·s	–	–	0.308 mPa·s
101.33 kPa	–	0.379 ± 0.004 mPa·s	–	–	–	–	–

ClCCl
Details	viscosity
293.15 K, 101 kPa	0.428 ± 0.005 mPa·s
298 K, 101 kPa	0.433 ± 0.023 mPa·s
298.15 K, 101.33 kPa	0.38 ± 0.011 mPa·s and 0.406 ± 0.012 mPa·s and 0.401 ± 0.048 mPa·s
303.15 K, 101.3 kPa	0.394 ± 0.007 mPa·s
303.15 K, 101.33 kPa	0.369 ± 0.011 mPa·s
308.15 K, 101.33 kPa	0.362 ± 0.011 mPa·s

C[n+]1ccn(CCO)c1.O=S(=O)([O-])C(F)(F)C(F)(F)C(F)(F)C(F)(F)F
101 kPa
Details	viscosity [mPa·s]
298.15 K	831.6 ± 45
308.15 K	411.4 ± 20
318.15 K	224 ± 10

CCC(=O)N(CC)CC
Details	viscosity [mPa·s]
298.16 K, 101 kPa	1.241 ± 0.011

CCCn1cc[n+](C)c1C.F[B-](F)(F)F
101 kPa
Details	viscosity [mPa·s]
298.15 K	377.3 ± 52
303.15 K	271.9 ± 31
308.15 K	202 ± 19
313.15 K	152.2 ± 12
318.15 K	117.4 ± 7
323.15 K	92.29 ± 4.1

CCNc1ccccc1
Details	viscosity
293.15 K, 101 kPa	2.282 ± 0.052 mPa·s
298 K, 101 kPa	1.947 ± 0.05 mPa·s
298 K, 101.3 kPa	1.952 ± 0.052 mPa·s
298.15 K, 101 kPa	1.971 ± 0.051 mPa·s and 1.75 ± 0.05 mPa·s and 1.959 ± 0.052 mPa·s
303 K, 101 kPa	1.741 ± 0.045 mPa·s
303 K, 101.3 kPa	1.71 ± 0.046 mPa·s
303.15 K, 100 kPa	1.742 ± 0.022 mPa·s
308 K, 101 kPa	1.549 ± 0.04 mPa·s
308 K, 101.3 kPa	1.559 ± 0.042 mPa·s
308.15 K, 101.33 kPa	1.5 ± 0.051 mPa·s
313 K, 101 kPa	1.392 ± 0.036 mPa·s
313 K, 101.3 kPa	1.389 ± 0.037 mPa·s
313.15 K, 101 kPa	1.405 ± 0.051 mPa·s and 1.391 ± 0.28 mPa·s and 1.34 ± 0.04 mPa·s
318 K, 101 kPa	1.263 ± 0.033 mPa·s
318 K, 101.3 kPa	1.251 ± 0.034 mPa·s
318.15 K, 101 kPa	1.264 ± 0.051 mPa·s
323.15 K, 101 kPa	1.146 ± 0.05 mPa·s and 1.07 ± 0.03 mPa·s and 1.124 ± 0.03 mPa·s

CCC[N+](C)(C)C.O=S(=O)([N-]S(=O)(=O)C(F)(F)F)C(F)(F)F
101.3 kPa
Details	viscosity [mPa·s]
293.15 K	102 ± 20
298.15 K	79.4 ± 16
303.15 K	63.2 ± 13
308.15 K	51.1 ± 10
313.15 K	42 ± 8.4
318.15 K	35 ± 7
323.15 K	29.5 ± 5.9

CC(=O)O
Details	viscosity
293.15 K, 101.32 kPa	1.226 ± 0.014 mPa·s
293.15 K, 101.33 kPa	1.226 ± 0.014 mPa·s and 1.222 ± 0.059 mPa·s
298.15 K, 101.3 kPa	1.155 ± 0.03 mPa·s and 1.27 ± 0.03 mPa·s
303.15 K, 100 kPa	0.982 mPa·s
303.15 K, 101.33 kPa	1.346 ± 0.0094 mPa·s and 0.98 ± 0.05 mPa·s
308.15 K, 101.3 kPa	1.08 ± 0.03 mPa·s
308.15 K, 101.32 kPa	0.9795 ± 0.012 mPa·s
313.15 K, 101.3 kPa	0.931 ± 0.025 mPa·s
318.15 K, 101.32 kPa	0.8536 ± 0.01 mPa·s
323.15 K, 101.3 kPa	0.823 ± 0.022 mPa·s and 0.883 ± 0.022 mPa·s

CC1CCCC(C)C1=O (configuration not stated)
100 kPa
Details	viscosity [mPa·s]
303.15 K	3.709 ± 0.15
308.15 K	3.237 ± 0.13
313.15 K	2.765 ± 0.11

CCCCCC[n+]1ccn(C)c1.[I-]
101 kPa
Details	viscosity [mPa·s]
293.15 K	2633 ± 260
298.15 K	1742 ± 160
303.15 K	1175 ± 100
308.15 K	801.8 ± 68
313.15 K	563.5 ± 45
318.15 K	404.7 ± 31
323.15 K	278.8 ± 20

C1CCC2=[NH+]CCCN2CC1.c1c[n-]cn1
Details	viscosity [mPa·s]
298.15 K, 100 kPa	34.34 ± 1.5

O=S(=O)(O)O
101 kPa
Details	viscosity [mPa·s]
293.15 K	28.7 ± 0.74
313.15 K	16 ± 0.42
323.15 K	12.5 ± 0.33

C[Si]1(C)O[Si](C)(C)O[Si](C)(C)O[Si](C)(C)O1
viscosity [mPa·s]
Details	298.15 K	308.15 K	318.15 K
101 kPa	2.19 ± 0.057	1.806 ± 0.048	1.514 ± 0.04
103 kPa	2.068 ± 0.044	1.71 ± 0.043	1.435 ± 0.042

ClCCl + CCCCC
[1]
Details	viscosity [mPa·s]
x2 = 0.05	0.403 ± 0.006
x2 = 0.1	0.384 ± 0.006
x2 = 0.1023	0.379 ± 0.011
x2 = 0.15	0.366 ± 0.006
x2 = 0.1992	0.345 ± 0.01
x2 = 0.2	0.348 ± 0.006
x2 = 0.25	0.332 ± 0.006
x2 = 0.3	0.317 ± 0.007
x2 = 0.3043	0.314 ± 0.01
x2 = 0.35	0.303 ± 0.007
x2 = 0.4	0.29 ± 0.007
x2 = 0.4032	0.29 ± 0.01
x2 = 0.45	0.28 ± 0.007
x2 = 0.5	0.27 ± 0.007
x2 = 0.5097	0.269 ± 0.01
x2 = 0.55	0.262 ± 0.007
x2 = 0.6	0.255 ± 0.007
x2 = 0.603	0.254 ± 0.01
x2 = 0.65	0.248 ± 0.007
x2 = 0.6984	0.242 ± 0.01
x2 = 0.7	0.242 ± 0.007
x2 = 0.75	0.237 ± 0.007
x2 = 0.7991	0.231 ± 0.01
x2 = 0.8	0.232 ± 0.007
x2 = 0.85	0.227 ± 0.007
x2 = 0.8858	0.224 ± 0.01
x2 = 0.9	0.222 ± 0.007
x2 = 0.9189	0.221 ± 0.01
x2 = 0.95	0.218 ± 0.007

ClCCl + CC(C)O
[1]
Details	viscosity [mPa·s]
x2 = 0.05	0.425 ± 0.006
x2 = 0.0992	0.435 ± 0.006
x2 = 0.1	0.433 ± 0.006
x2 = 0.15	0.444 ± 0.006
x2 = 0.2	0.458 ± 0.006
x2 = 0.2021	0.457 ± 0.006
x2 = 0.25	0.474 ± 0.006
x2 = 0.299	0.491 ± 0.006
x2 = 0.3	0.494 ± 0.006
x2 = 0.35	0.518 ± 0.007
x2 = 0.3974	0.548 ± 0.006
x2 = 0.4	0.547 ± 0.007
x2 = 0.45	0.583 ± 0.007
x2 = 0.5	0.626 ± 0.007
x2 = 0.55	0.679 ± 0.007
x2 = 0.552	0.68 ± 0.007
x2 = 0.5957	0.74 ± 0.007
x2 = 0.6	0.744 ± 0.008
x2 = 0.65	0.823 ± 0.008
x2 = 0.6514	0.825 ± 0.008
x2 = 0.7	0.917 ± 0.009
x2 = 0.75	1.031 ± 0.009
x2 = 0.8	1.167 ± 0.01
x2 = 0.8003	1.16 ± 0.009
x2 = 0.85	1.327 ± 0.011
x2 = 0.8515	1.321 ± 0.01
x2 = 0.897	1.515 ± 0.012
x2 = 0.9	1.516 ± 0.012
x2 = 0.924	1.619 ± 0.012
x2 = 0.9482	1.742 ± 0.013
x2 = 0.95	1.738 ± 0.014
x2 = 0.975	1.912 ± 0.014
